Laboratory results: publication PMC6410080 (Viruses, 2019)
Counter-ions that a name gives are not always drawn.

What follows are compounds tested on RRV (assay: microbe, parasite or virus in culture). Details: Ross River virus, HeLa Kyoto, read-out: IC50 RRV.
Assay type: cell-based

`CC[C@@]1([C@@H]2O[C@@H]([C@H]3O[C@@](O)(CO)[C@H](C)C[C@@H]3C)C[C@@H]2C)CC[C@H]([C@]2(C)CC[C@]3(C[C@H](O)[C@@H](C)[C@@H]([C@@H](C)[C@@H](OC)[C@H](C)C(=O)O)O3)O2)O1` [Monensin, Monensin sodium salt] and `CNc1ccc2oc(C[C@H]3O[C@@]4(CC[C@H]3C)O[C@H]([C@H](C)C(=O)c3ccc[nH]3)[C@H](C)C[C@H]4C)nc2c1C(=O)O` [Calcimycin] are within 1.5-fold of each other in IC50: 4.6 µM for the first, 6.5 µM for the second.

Going from `CCN(CC)Cc1cc(Nc2ccnc3cc(Cl)ccc23)ccc1O` [Amodiaquine, Amodiaquine dihydrochloride dihydrate] to `O=C(Nc1ccc([N+](=O)[O-])cc1Cl)c1cc(Cl)ccc1O` [Niclosamide], the IC50 falls from 6.2 µM to 0.82 µM (7.6-fold). The second is the more potent here.

Compared with `C=C1C(=O)O[C@H]2[C@H]1CC/C(C)=C/CC[C@@]1(C)O[C@@H]21` [Parthenolide], `CC(C)COCC(CN(Cc1ccccc1)c1ccccc1)N1CCCC1` (stereo not shown) [Bepridil, Bepridil hydrochloride] is 1.7-fold lower in IC50: 7.7 µM for the first, 4.6 µM for the second.

Work on `O=C1c2c(O)ccc(O)c2C(=O)c2c(NCCNCCO)ccc(NCCNCCO)c21` [Mitoxantrone, Mitoxantrone dihydrochloride] yielded an IC50 of 4.9 µM.
